How the values were obtained:
[1] = UV spectroscopy binding between compounds: binding to morphine sulfate; conditions: read-out: Kd @ 200 nm, binding to Morph; UV spectroscopy, pH 7.4 sodium phosphate buffer; single binding constant
[2] = UV spectroscopy binding between compounds: binding to methadone; conditions: pH 7.4 sodium phosphate buffer, read-out: Kd @ 200 nm, binding to Meth
[3] = UV spectroscopy binding between compounds: binding to naloxone; conditions: pH 7.4 sodium phosphate buffer, read-out: Kd @ 200 nm, binding to NAL
[4] = UV spectroscopy binding between compounds: binding to amphetamine; conditions: read-out: Kd @ 200 nm, binding to Amph; UV spectroscopy, pH 7.4 sodium phosphate buffer; single binding constant
[5] = UV spectroscopy binding between compounds: binding to propranolol; conditions: read-out: Kd @ 200 nm, binding to Prop; UV spectroscopy, pH 7.4 sodium phosphate buffer; single binding constant
[6] = UV spectroscopy binding between compounds: binding to ascorbic acid; conditions: read-out: Kd @ 200 nm, binding to Asc, pH 7.4 sodium phosphate buffer
[7] = UV spectroscopy binding between compounds: binding to glucose; conditions: read-out: Kd @ 200 nm, binding to Glucose, pH 7.4 sodium phosphate buffer
[8] = UV spectroscopy binding between compounds: binding to riboflavin; conditions: pH 7.4 sodium phosphate buffer, read-out: Kd @ 200 nm, binding to Ribo
[9] = target: T1, dopamine D1 receptor (D1DR) 89–98 (Homo sapiens, UniProt P21728); experiment: UV spectroscopy binding to receptor peptide D1DR 89–98
T1 construct: D1DR 89–98
Description: (§1) After the solutions were made, a 96-well quartz crystal plate was prepared to be run through the spectrophotometer at room temperature (ca. 24 °C). […] The absorbance of each receptor peptide without the presence of the adrenergic compound was measured as well. The absorbance of each well was measured at every 10 nm increment from 190 nm to 260 nm. The maximum absorbance that can be measured was set to four. Each well had 200 μL of solution, so if the absorbance of one component was being measured, it was diluted by half with a phosphate buffer.
(§2) If the measured absorbance is different than the additive absorbance of each compound, then that indicates some sort of molecular interaction. The binding can be quantified by graphing the difference in absorbance against the concentration of the compound varied to provide a binding curve. The data are analyzed by finding the additive absorbance and plotting the difference between this absorbance and the actual absorbance against the concentration of the adrenergic compound. The absorbance for the phosphate buffer is subtracted for each well before any calculations are done. […] The binding constants were estimated from the half-saturation point.

[10] = target: T2, dopamine D1 receptor (D1DR) 170–188 (Homo sapiens, UniProt P21728); experiment: UV spectroscopy binding to receptor peptide D1DR 170–188
T2 construct: D1DR 170–188
Description: as §1, §2

[11] = target: T3, beta 2 adrenergic receptor (B2AR) 97–103 (Homo sapiens, UniProt P07550); experiment: UV spectroscopy binding to receptor peptide B2AR 97–103
T3 construct: B2AR 97–103
Description: as §1, §2

[12] = target: T4, beta 2 adrenergic receptor (B2AR) 175–188 (Homo sapiens, UniProt P07550); experiment: UV spectroscopy binding to receptor peptide B2AR 175–188
T4 construct: B2AR 175–188
Description: as §1, §2

[13] = target: methionine-enkephalin (Homo sapiens, UniProt P01210); experiment: UV spectroscopy binding between compounds: binding to methionine-enkephalin; design: M-Enk = methionine-enkephalin; purchased Sigma-Aldrich; conditions: Kd @ 200 nm, binding to M-Enk, UV spectroscopy, pH 7.4 sodium phosphate buffer; single binding constant
[14] = target: intact mu opioid receptors (muOPRs) (Homo sapiens, UniProt P35372); type: binding; design: intact mu opioid receptors (muOPRs); deca-histidine tag (N); made in house; host or cells: E. coli C43 (DE3)
intact mu opioid receptors (muOPRs), sequence (P35372 whole entry): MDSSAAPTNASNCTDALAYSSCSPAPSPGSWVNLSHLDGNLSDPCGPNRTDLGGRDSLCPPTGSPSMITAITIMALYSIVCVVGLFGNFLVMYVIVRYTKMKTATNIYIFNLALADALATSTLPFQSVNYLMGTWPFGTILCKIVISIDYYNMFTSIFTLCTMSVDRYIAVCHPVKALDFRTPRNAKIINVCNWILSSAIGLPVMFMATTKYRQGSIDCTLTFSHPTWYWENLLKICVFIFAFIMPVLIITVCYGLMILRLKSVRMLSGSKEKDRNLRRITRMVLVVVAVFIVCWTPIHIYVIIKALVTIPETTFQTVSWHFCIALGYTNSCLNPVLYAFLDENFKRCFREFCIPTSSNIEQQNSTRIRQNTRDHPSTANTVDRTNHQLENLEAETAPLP

In the case of `CC(=O)OCC[N+](C)(C)C` [Acetylcholine], the Kd [1] is reported as > 1000 µM, the Kd [2] is reported as > 1000 µM and the Kd [3] is reported as > 1000 µM. The Kd [4] was > 1000 µM, the Kd [5] was > 1000 µM and the Kd [6] was > 1000 µM. For the same molecule, the Kd [7] was > 1000 µM, the Kd [8] was > 1000 µM and the Kd [9] was > 1000 µM. The Kd [10] was > 1000 µM, the Kd [11] was > 1000 µM and the Kd [12] was > 1000 µM. The Kd [13] was 80 µM and the “ligand binding to intact muOPRs” value [14] was “no observable bind”.

From article PMC6747318, “Mutual Enhancement of Opioid and Adrenergic Receptors by Combinations of Opioids and Adrenergic Ligands Is Reflected in Molecular Complementarity of Ligands: Drug Development Possibilities” (International Journal of Molecular Sciences, 2019)
